Source: patent publication EP1038864A1, “NOVEL METALLOPROTEINASE INHIBITORS” (FUJI YAKUHIN KOGYO KABUSHIKI KAISHA, priority 1997, dated 1999)
Where two headings read alike, the source gives them in different places. Values belong to the compound of their own block, whether it stands above or below them.

Tests used:
TNF-α Convertase = TNF-α Convertase (Homo sapiens, UniProt P78536); experiment: Assay for inhibition of TNF-α production in LPS-stimulated, PMA-differentiated U937 cells
Experimental: Human monocytic leukemia cell line U937 (human histiocytic lymphoma cell line U937) cells were cultured in RPMI 1640 (Nissui Pharmaceutical Co., Ltd., Japan) supplemented with 5% fetal calf serum (FCS; IBL, Japan) in an incubator at 37°C under 5% CO2, then transferred to multiplates at a density of 1 x 10^6 cells/1 ml/well, and incubated overnight in the presence of 10^-7 M phorbol 12-myristate 13-acetate (Wako Pure Chemical Industries, Ltd., Japan) to form differentiated macrophage-like cells. To the resultant cells was added E. coli O127:B8 lipopolysaccaride (LPS, 0.1 µg/ml; Sigma) alone or along with each compound of the present invention, and the treated cells were then incubated for 6 hours in an incubator under 5% CO2 at 37°C. After the incubation, the cultures were collected and centrifuged at 3000 rpm for 10 minutes to give supernatants which were diluted with purified water and then assayed using a TNF-α assay kit, Genzyme (Table 3).

in vivo = details: rat, po, 100 mg/kg
Experimental: (§2) Each compound of the present invention was dissolved in distilled water for injection and orally administered to rats (Lewis strain line, male, body weight: about 200 g) at a dose of 100mg/kg. From 30 minutes to 4 hours after the administration, a series of blood chronologically collected from rat fundus oculi were centrifuged (3000rpm for 10 minutes at 4°C) to give plasma samples. Each plasma sample (200 µl) was filtered through an ultrafiltration membrane by centrifugation at 1500 x G for 3 minutes using a micropartition UF unit (Centrifree-MPS-3: 30,000 MW cut-off, Amicon Corp., Beverly, MA). […] The reaction was stopped by adding 900 µl of 3% aqueous acetic acid to the reaction mixture. The fluorescence of the resulting solution was read using an excitation wavelength of 325 nm and an emission wavelength of 393 nm. The concentration of each test compound in rat plasma samples was calculated using a standard curve which was prepared based on a variety of doses.

[1] = biological target: human fibroblast stromelysin (Homo sapiens, UniProt P08254); experiment: Assay for inhibition of stromelysin (fluorescein-labeled casein substrate); assay type: biochemical
human fibroblast stromelysin, sequence (P08254 100-477): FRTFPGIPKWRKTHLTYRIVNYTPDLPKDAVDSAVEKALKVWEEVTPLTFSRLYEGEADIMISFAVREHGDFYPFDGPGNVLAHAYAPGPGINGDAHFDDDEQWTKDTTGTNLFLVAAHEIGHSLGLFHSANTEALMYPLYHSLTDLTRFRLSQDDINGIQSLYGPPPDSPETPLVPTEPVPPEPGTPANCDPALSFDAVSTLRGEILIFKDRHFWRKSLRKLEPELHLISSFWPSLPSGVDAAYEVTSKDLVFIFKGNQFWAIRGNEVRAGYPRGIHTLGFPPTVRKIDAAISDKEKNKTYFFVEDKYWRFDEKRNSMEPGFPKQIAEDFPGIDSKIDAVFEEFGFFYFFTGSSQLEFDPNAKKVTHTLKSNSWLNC
Experimental: (§1) Described below are assays for biological activities of the compounds according to the present invention, formulations, dosage forms and dosage levels thereof, and miscellaneous matters. The efficacy of the compounds represented by the formula (I) according to the present invention as inhibitors of human fibroblast collagenase (metalloproteinase involved in the breakdown of tissues) is determined by a procedure based on the method of Y. Murawaki et al., Journal of Hepatology, 18, p328-334 (1993). The efficacy of the compounds (I) of this invention as inhibitors of human fibroblast stromelysin is determined by a procedure based on the method of S. S. Twining, Anal. Biochem., 143, p30 (1984). The assay results obtained are shown hereinbelow, together with biological examples which illustrate embodiments of the assay protocols.
The efficacy of compounds of the present invention to act as inhibitors of human fibroblast stromelysin was determined by the procedure of Twining (Anal. Biochem., 143, p.30, 1984), compared with a reference compound.
Prostromelysin was activated by incubation with 20 µg/ml human plasmin at 37°C for 2 hours, and the reaction was stopped by addition of 2.8 mg/ml aqueous diisopropyl fluorophosphate. The inhibition was assayed using, as a substrate, fluorescein-labeled casein. To a solution of the substrate (1 mg/ml) in a 50 mM Tris-HCl buffer, pH 7.8, containing 10mM aqueous calcium chloride was added the activated stromelysin. The resultant solution was incubated at 37°C for 2 hours. The digestion of the substrate with the enzyme was stopped by addition of 5% trichloroacetic acid. Undigested substrates were precipitated by centrifugation at 3000 x g for 20 minutes. The supernatant was collected, followd by additon of a 0.5M Tris-HCl buffer, pH 8.5. The fluorescence was read using an excitation wavelength of 495 nm and an emission wavelength of 520 nm. The inhibitory potency of the compounds was calculated. […] The resulting assay data for representative examples are shown in Table 2, compared with the reference compound.

[2] = rat, in vivo, po, 100 mg/kg, 4 h
Experimental: as §2

[3] = Assay for Oral Absorption in Rat (plasma level by MMP-3 inhibition bioassay)
Experimental: as §2

[4] = biological target: T1, human fibroblast collagenase (Homo sapiens, UniProt P03956); experiment: Assay for inhibition of collagenase (fluorescein-labeled bovine type I collagen substrate); assay type: biochemical
T1 sequence (P03956 100-469): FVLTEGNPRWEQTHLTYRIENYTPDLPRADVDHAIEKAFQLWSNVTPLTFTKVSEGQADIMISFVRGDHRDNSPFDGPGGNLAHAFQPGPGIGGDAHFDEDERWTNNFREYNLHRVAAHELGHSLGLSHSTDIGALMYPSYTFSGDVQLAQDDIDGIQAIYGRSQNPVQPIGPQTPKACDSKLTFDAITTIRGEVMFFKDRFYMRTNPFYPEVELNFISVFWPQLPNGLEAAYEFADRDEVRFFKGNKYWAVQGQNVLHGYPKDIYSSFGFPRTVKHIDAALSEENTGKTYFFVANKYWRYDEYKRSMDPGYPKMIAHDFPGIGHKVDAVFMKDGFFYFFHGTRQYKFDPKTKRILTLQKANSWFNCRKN
Experimental: as §1
The efficacy of compounds of the present invention to act as inhibitors of human fibroblast collagenase was determined by the procedure of Y. Murawaki et al. (Journal of Hepatology, 18, p.328-334, 1993), compared with a reference compound.
Procollagenase was activated by incubation with 2 mM 4-aminophenylmercuric acetate (APMA) at 35°C for 2 hours. The inhibition was assayed using, as a substrate, fluorescein-labeled bovine type I collagen. To a solution of the substrate (0.5 mg/ml) in a 50 mM Tris-HCl buffer, pH 7.5, containing 0.4M aqueous sodium chloride and 10 mM aqueous […] was added the activated collagenase. The resultant solution was incubated at 35°C for 2 hours. The digestion of the substrate with the enzyme was stopped by addition of 80 mM o-phenanthroline, followed by addition of a porcine elastase solution formed by dissolving 25 µg/ml porcine elastase in the aforementioned Tris-HCl buffer. The mixture was incubated at 37°C for 10 minutes. To the resulting solution was added 70% ethanol, and a 170 mM Tris-HCl buffer, pH 9.5, containing 0.67M aqueous sodium chloride. Undigested substrates were precipitated by centrifugation at 3000 x g for 20 minutes. The supernatant was collected and the fluorescence was read using an excitation wavelength of 495 nm and an emission wavelength of 520 nm. The inhibitory potency of the compounds was calculated. […] The resulting assay data for representative examples are shown in Table 1, compared with the reference compound. […]

[5] = read-out: Inhibition of MMP-3, plasmin-activated human fibroblast prostromelysin, 37°C, 2 hours, pH 7.8
[6] = read-out: Inhibition of TACE, U937 cells, LPS 0.1 µg/ml, 6 hours, TNF-α in supernatant by assay kit
[7] = plasmin-activated human fibroblast prostromelysin, 37°C, 2 hours, pH 7.8, read-out: Inhibition of MMP-3

TNF-α Convertase, sequence (P78536 215-824): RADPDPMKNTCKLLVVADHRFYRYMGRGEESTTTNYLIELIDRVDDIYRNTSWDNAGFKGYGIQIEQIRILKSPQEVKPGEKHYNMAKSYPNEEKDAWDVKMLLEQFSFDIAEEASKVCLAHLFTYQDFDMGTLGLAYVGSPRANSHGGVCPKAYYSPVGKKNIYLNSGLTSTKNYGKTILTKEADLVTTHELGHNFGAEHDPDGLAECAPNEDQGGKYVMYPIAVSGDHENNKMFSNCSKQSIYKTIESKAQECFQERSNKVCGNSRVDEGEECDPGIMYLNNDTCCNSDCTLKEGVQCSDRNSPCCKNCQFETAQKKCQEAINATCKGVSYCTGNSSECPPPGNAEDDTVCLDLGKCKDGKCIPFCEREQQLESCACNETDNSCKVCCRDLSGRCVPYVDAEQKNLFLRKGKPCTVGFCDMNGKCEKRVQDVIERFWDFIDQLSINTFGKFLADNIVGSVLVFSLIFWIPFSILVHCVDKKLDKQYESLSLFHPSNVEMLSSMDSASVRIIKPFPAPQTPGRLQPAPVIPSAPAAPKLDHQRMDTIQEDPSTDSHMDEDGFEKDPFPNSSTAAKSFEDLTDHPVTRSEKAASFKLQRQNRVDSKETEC

Compound: CC(=N)NCCCC[C@H](NC(=O)[C@H](CC(C)C)C(C)C(=O)NO)C(=O)NC(C)CO.CC(=O)O (mixture of isomers) [Compound No. 39, N^a-[4-(Hydroxyamino)-2(R)-isobutyl-3(RS)-methylsuccinyl]-N^e-acetimidoyl-L-lysine N-[2-hydroxy-1(RS)-methylethyl]amide · 1 acetate]
AUC0.5-4 [2]: 14.996 µg·h/mL

Compound: CC(=O)O.CNC(=O)[C@H](Cc1ccc(CNC(C)=N)cc1)NC(=O)[C@H](CC(C)C)[C@H](O)C(=O)NO [Compound No. 43, N^a-[4-(Hydroxyamino)-2(R)-isobutyl-3(S)-hydroxysuccinyl]-4'-acetimidoyliminomethyl-L-phenylalanine N-methylamide · 1 acetate]
AUC0.5-4 [2]: 3.289 µg·h/mL

Compound: CC(=O)O.CCC(=N)NCCCC[C@H](NC(=O)[C@H](CC(C)C)C(C)C(=O)NO)C(=O)NC (mixture of isomers) [Compound No. 45, N^a-[4-(Hydroxyamino)-2(R)-isobutyl-3(RS)-methylsuccinyl]-N^e-propionimidoyl-L-lysine N-methylamide · 1 acetate]
AUC0.5-4 ([3]; rats (Lewis, male), orally, 100mg/kg, 0.5 to 4 hours after administration): 7.067 µg·h/mL

Compound: CC(=O)O.CNC(=O)[C@H](C)NC(=O)[C@H](CC(C)C)C(Cc1cccc(CN)c1)C(=O)NO (single isomer, unassigned) [Compound No. 53, N^a-[4-(Hydroxyamino)-2(R)-isobutyl-3(R or S)-(m-aminomethylbenzyl)succinyl]-L-alanine N-methylamide · 1 acetate]
AUC0.5-4 [2]: 4.816 µg·h/mL

Compound: CC(=O)O.CC(=O)O.CNC(=O)[C@H](Cc1ccc(CN)cc1)NC(=O)[C@H](CC(C)C)C(Cc1ccc(CN)cc1)C(=O)NO (single isomer, unassigned) [Compound No. 49, N^a-[4-(Hydroxyamino)-2(R)-isobutyl-3(R or S)-(p-aminomethylbenzyl)succinyl]-4'-aminomethyl-L-phenylalanine N-methylamide · 2 acetate]
AUC0.5-4 [2]: 15.292 µg·h/mL

Compound: CNC(=O)[C@H](CCCNC(=N)N)NC(=O)[C@H](CC(C)C)C(CC(C)C)C(=O)NO (single isomer, unassigned) [Compound No. 24, N^a-[4-(Hydroxyamino)-2(R),3(R or S)-diisobutylsuccinyl]-L-arginine N-methylamide · 1 acetate]
IC50 (TNF-α Convertase): 0.48 µM
IC50 [4]: 0.005 µM
IC50 [1]: 0.018 µM

Compound: CC(=O)O.CC(=O)O.CNC(=O)[C@H](CCCN)NC(=O)[C@H](CC(C)C)C(Cc1ccc(CN)cc1)C(=O)NO (single isomer, unassigned) [Compound No. 48, N^a-[4-(Hydroxyamino)-2(R)-isobutyl-3(R or S)-(p-aminomethylbentyl)succinyl]-L-ornithine N-methylamide· 2 acetate]
AUC0.5-4 [2]: 20.203 µg·h/mL

Second part, the compound after the results:

IC50 (TNF-α Convertase): 0.129 µM
AUC at 4 h (in vivo): 1.93 µg·h/mL
IC50 [1]: 0.017 µM
Compound: CC(=N)NCCCCC(NC(=O)C(CC(C)C)C(CCCc1ccccc1)C(=O)NO)C(=O)NCCN(C)C [Compound No. 44, N^a-[4-(Hydroxyamino)-2(R)-isobutyl-3(RS)-(3-phenylpropyl)-succinyl]-N^e-acetimidoyl-L-lysine N-(2-N',N'-dimethylaminoethyl)amide · 2 acetate]

AUC at 4 h (in vivo): 3.34 µg·h/mL
IC50 [1, 5]: 0.02 µM
Compound: CCCCOCCC(C(=O)NO)[C@@H](CC(C)C)C(=O)N[C@@H](CCCCN)C(=O)NC (single isomer, unassigned) [Compound No. 69, N^a-[4-(Hydroxyamino)-2(R)-isobutyl-3(R or S)-(2-n-butyloxyethyl)succinyl]-L-lysine N-methylamide· 1 acetate]

IC50 (TNF-α Convertase; [6]): 1.1 µM
AUC at 4 h (in vivo): 13.8 µg·h/mL
IC50 [1, 5]: 0.023 µM
Compound: CNC(=O)[C@H](CCCCN)NC(=O)[C@H](CC(C)C)C(CCCc1ccc(CN)cc1)C(=O)NO (single isomer, unassigned) [Compound No. 61, N^a-[4-(Hydroxyamino)-2(R)-isobutyl-3(R or S)-(3-(p-aminomethylphenyl)propyl]succinyl]-L-lysine N-methylamide· 2 acetate]

IC50 (TNF-α Convertase; [6]): 0.603 µM
AUC at 4 h (in vivo): 9.03 µg·h/mL
IC50 [1, 5]: 0.062 µM
Compound: CNC(=O)[C@H](CCCCN)NC(=O)[C@H](C(C)C)C(CCCc1ccccc1)C(=O)NO (single isomer, unassigned) [Compound No. 74, N^a-[4-(Hydroxyamino)-2(R)-isopropyl-3(R or S)-(3-phenylpropyl)succinyl]-L-lysine N-methylamide· 1 acetate]

AUC ([3]; male, Lewis, rat, po, 100 mg/kg): 6.25 µg·h/mL
IC50 [1, 7]: 0.024 µM
Compound: CC(=N)NCc1ccc(CC(NC(=O)C(CC(C)C)C(C)C(=O)NO)C(=O)NN2CCOCC2)cc1 (single isomer, unassigned) [Compound No. 42, N^a-[4-(Hydroxyamino)-2(R)-isobutyl-3(R or S)-methylsuccinyl]-4'-acetimidoyliminomethyl-L-phenylalanine N-(morpholin-4-yl)-amide · 1 acetate]

IC50 (TNF-α Convertase): 0.25 µM
AUC at 4 h (in vivo): 4.04 µg·h/mL
Compound: CNC(=O)[C@H](CCCCN)NC(=O)[C@H](CC(C)C)C(CCCc1ccc(O)cc1)C(=O)NO (single isomer, unassigned) [Compound No. 72, N^a-[4-(Hydroxyamino)-2(R)-isobutyl-3(R or S)-[3-(p-hydroxyphenyl)propyl]succinyl]-L-lysine N-methylamide· 1 acetate]

IC50 (TNF-α Convertase): 1.19 µM
AUC at 4 h (in vivo): 4.76 µg·h/mL
IC50 [1]: 0.016 µM
Compound: CNC(=O)C(Cc1ccc(CN)cc1)NC(=O)C(CC(C)C)C(C)C(=O)NO [Compound No. 23, N^a-[4-(Hydroxyamino)-2(R)-isobutyl-3(RS)-methylsuccinyl]-4'-aminomethyl-L-phenylalanine N-methylamide · 1 acetate]

IC50 (TNF-α Convertase): 0.599 µM
IC50 ([4]; activated human fibroblast procollagenase, 35°C, 2 hours, pH 7.5, read-out: Inhibition of MMP-1): 0.013 µM
IC50 [1, 7]: 0.009 µM
Compound: CNC(=O)C(CCCNC(=N)N)NC(=O)C(CC(C)C)C(Cc1ccc(CNS(=O)(=O)c2ccc(C)cc2)cc1)C(=O)NO (single isomer, unassigned) [Compound No. 50, N^a-[4-(Hydroxyamino)-2(R)-isobutyl-3(R or S)-[p-(p-toluenesulfonamidomethyl)benzyl]succinyl]-L-arginine N-methylamide · 1 acetate]

AUC0.5-4 [2]: 5.662 µg·h/mL
Compound: N^a-[4-(Hydroxyamino)-2(R)-isobutyl-3(R or S)-[5-(isopropylimino)pentyl]succinyl]-L-alanine N-methylamide [Compound No. 63]

AUC at 4 h (in vivo): 1.57 µg·h/mL
Compound: CNC(=O)[C@@H](NC(=O)[C@H](CC(C)C)[C@H](O)C(=O)NO)C(C)(C)C [Reference Compound No. 2, reference compound]
